{"source": "patent US20150366879A1", "about": "“DIFLUPREDNATE EMULSION COMPOSITION CONTAINING ANTIMICROBIAL METAL” (SENJU PHARMACEUTICAL CO., LTD., priority 2013, published 2015)", "test_system": "Staphylococcus aureus, Escherichia coli and Pseudomonas aeruginosa", "test": "preservative efficacy test, judgment of immediate effectiveness over all microbial species", "assay_type": "cell-based", "protocol": "As the test microorganism, Staphylococcus aureus (ATCC 6538), Escherichia coli (ATCC 8739) and Pseudomonas aeruginosa (ATCC 9027) were used. Each test microorganism was inoculated on the surface of a slant agar medium and precultured. The preculture was conducted using a soybean casein digest agar medium at 30-35° C. for 18-24 hr.\nAn emulsion composition to be subjected to the test was used as a sample, and the sample was dispensed to 5 sterilized stoppered test tubes by 10 mL each. A precultured test microorganism was added to the sample such that the cell count was 10^5-10^6 cells/mL to give a mixed sample. The test microorganism was singly added to the sample. The mixed sample was preserved at 20-25° C. with protection from light.\nAt 6 hr and 24 hr from the start of the preservation, 1 mL of each mixed sample was taken, and the solution was diluted with saline (9 mL). Similar dilution was performed 2-3 times and each diluted solution (1 mL) was dispensed to a sterilized petri dish, and then, 0.1 (w/v) % lecithin-0.7 (w/v) % polysorbate 80-added soybean casein digest agar medium was added to the bacteria, and the mixture was cultured at 30-35° C. for about 3 days. The colony forming units were measured, and the viable cell count per 1 mL of the mixed sample was calculated.\nWhen the viable cell counts of all microbial species decreased by 3 log or more after 24 hr from the start of the test, an immediate effectiveness of preservative efficacy was judged to be present and the judgment was compatible. When further immediate effectiveness of preservative efficacy is demanded, it was judged to be present when the viable cell counts of all microbial species decreased by 3 log or more after 24 hr from the start of the test and the viable cell counts of all microbial species decreased by 2 log or more after 6 hr from the start of the test, and the judgment was compatible.", "key": {"[1]": {"settings": "added as preservative to difluprednate emulsion composition"}}, "note": "Structures can show the parent of a compound that is named as a salt. Where two headings read alike, the source gives them in different places."}
{"compound": "C/C=C/C=C/C(=O)O", "note": "[sorbic acid]", "values": [{"measurement": "immediate effectiveness of preservative efficacy", "setting": "[1]", "value": "not found"}]}
{"compound": "Oc1cccc2cccnc12", "note": "[oxyquinoline sulfate]", "values": [{"measurement": "immediate effectiveness of preservative efficacy", "value": "not found"}]}
{"compound": "O=[N+]([O-])[O-].[Ag+]", "note": "[silver nitrate]", "values": [{"measurement": "concentration at which further (excellent) immediate effectiveness was found", "setting": "as silver ion, 6 hr and 24 hr criteria, in difluprednate emulsion", "value": "not less than 0.005 (w/v) %"}, {"measurement": "concentration at which immediate effectiveness of preservative efficacy was found", "setting": "as silver ion, 24 hr criterion, in difluprednate emulsion", "value": "not less than 0.0005 (w/v) %"}]}
{"compound": "benzalkonium chloride", "values": [{"measurement": "immediate effectiveness of preservative efficacy", "setting": "[1]", "value": "not found"}]}
{"compound": "O=S(=O)([O-])[O-].[Cu+2]", "note": "[copper sulfate]", "values": [{"measurement": "concentration at which excellent immediate effectiveness of preservative efficacy was obtained", "value": "not less than 0.0005 (w/v) %"}]}
